The test system of the experiment is Proteus mirabilis 29906 (Pm) lysate. Kind of experiment: Inhibition of TMA formation from choline (d9-choline to d9-TMA) in Proteus mirabilis lysate, LC-MS/MS. Type of experiment: biochemical. The settings on record: Pm lysate 1.5 mg/mL protein, 50 μM d9-choline chloride, 37° C. for two hours; read-out: TMA Inhibition (IC50, mol/L).
On to `S=C=NCC1CCCCC1` [Compound 8, Cyclohexyl- methyl isothiocyanate], for which the IC50 was 210 µM.

For the compound `S=C=Nc1ccc(Br)cc1` [Compound 20, 4-Bromo-phenyl isothiocyanate], the IC50 amounted to 88.8 µM.

Consider `CCC(C)N=C=S` (stereo not drawn) [Compound 10, sec-butyl isothiocyanate], for which the IC50 amounted to 129 µM.

As to `CN(C)CCCN=C=S` [Compound 41, 3-isothio-cyanato-N,N-dimethyl-1-Propanamine], the IC50 came out at 11.5 µM.

As to `C[N+](C)(C)CCN=C=S` [Compound 45, 2-Isothio-cyanato-N,N,N-trimethyl-ethana-minium iodide], the IC50 came out at 1.28 µM.

Consider `CCN(CC)CCN=C=S` [Compound 40, Ethanamine, N,N-diethyl-2-isothio-cyanato], for which the IC50 came out at 8.81 µM.

For `CC(C)(C)N=C=S` [Compound 2, tert-Butyl isothiocyanate], the IC50 worked out at 5480 µM.

With `COc1cccc(N=C=S)c1` [Compound 34, 3-Methoxy-phenyl isothiocyanate], the IC50 was 88.3 µM.

For the compound `COc1ccc(C)cc1N=C=S` [Compound 1, 2-Methoxy-5-methylphenyl isothiocyanate], the IC50 was 745 µM.

As for `CN(C)CCN=C=S` [Compound 42, 2-Isothio-cyanato-N,N-dimethyl-ethanamine], the IC50 came to 7.67 µM.

For the compound `CC(C)CN=C=S` [Compound 12, Isobutyl isothiocyanate], the IC50 came out at 74.5 µM.

For the compound `CC(C)CCN=C=S` [Compound 16, 1-isothio-cyanato-3-methyl-butane], the IC50 came out at 66.1 µM.

Regarding `CSc1ccc(N=C=S)cc1` [Compound 4, 4-(Methylthio) phenyl isothiocyanate], the IC50 came to 73.4 µM.

With `S=C=NC(c1ccccc1)c1ccccc1` [Compound 38, Benzhydryl isothiocyanate], the IC50 was 1560 µM.

As for `O=C(N=C=S)c1ccccc1` [Compound 21, Benzoyl isothiocyanate], the IC50 was found to be 196 µM.

On to `S=C=NC1CC2CCC1C2` (stereo not drawn) [Compound 29, exo-2-Norbornyl-isothiocyanate], for which the IC50 is 48.2 µM.

With `CCN(CC)CCCN=C=S` [Compound 7, 3-(Diethyl-amino) propyl isothiocyanate], the IC50 came to 1.56 µM.

As to `CCCCCN=C=S` [Compound 6, 1-pentyl isothiocyanate], the IC50 is 41.4 µM.

Take `CC(C)(C)OC(=O)NCCCCN=C=S` [Compound 22, N-Boc-4-isothio-cyanatobutyl-amine]: the IC50 is 65.2 µM.

For `CCCCN=C=S` [Compound 13, Butyl isothiocyanate], the IC50 amounted to 50.4 µM.

Regarding `CCOC(=O)CN=C=S` [Compound 36, Ethyl isothio- cyanato- acetate], the IC50 turned out to be 3.98 µM.

With Ethyl isothiocyanate [Compound 11], the IC50 came out at 28.6 µM.

Consider `COc1ccc(OC)c(N=C=S)c1` [Compound 33, 2,5-Di-methoxy-phenyl isothiocyanate], for which the IC50 came out at 152 µM.

As to `S=C=Nc1ccc(Cl)cc1` [Compound 27, 4-Chloro-phenyl isothiocyanate], the IC50 turned out to be 108 µM.

Take `CC(C)(C)OC(=O)Nc1ccc(N=C=S)cc1` [Compound 23, N-Boc-4-isothio-cyanatoaniline]: the IC50 worked out at 2530 µM.

Turning to `S=C=NCc1ccccc1` [Compound 5, Benzyl isothiocyanate], the IC50 came to 3.03 µM.

Take `CCCCCC12CCC(C(=O)Oc3ccc(N=C=S)cc3)(CC1)CC2` [Compound 37, 4-Isothio-cyanato-phenyl 4-pentyl-bicyclo [2.2.2] octane-1-carboxylate]: the IC50 was found to be 48900 µM.

Turning to `S=C=NCCc1ccc(Cl)cc1` [Compound 9, 2-(4-Chloro-phenethyl) isothiocyanate], the IC50 was 30 µM.

`S=C=NC1CCCCC1` [Compound 30, Cyclohexyl isothiocyanate]: the IC50 was 56.1 µM.

On to `CC(C)N=C=S` [Compound 15, Isopropyl isothiocyanat], for which the IC50 is 98.2 µM.

Regarding `Cc1cccc(N=C=S)c1` [Compound 3, m-Tolyl isothiocyanate], the IC50 was determined as 248 µM.

In the case of `CCC(C)CN=C=S` (stereo not drawn) [Compound 44, Butane, 1-isothio-cyanato-2-methyl-], the IC50 is 105 µM.

Turning to `S=C=NCCN1CCOCC1` [Compound 25, 2-(4-Morpholino) ethyl isothiocyanate], the IC50 was found to be 13.4 µM.

`C[C@H](N=C=S)c1ccccc1` [Compound 26, (S)-(+)-alpha- Methylbenzyl isothiocyanate]: the IC50 was 20.9 µM.

With `COc1ccccc1N=C=S` [Compound 32, 2-Methoxy-phenyl isothiocyanate], the IC50 turned out to be 188 µM.

Regarding `S=C=Nc1cccc2ccccc12` [Compound 19, 1-Naphthyl isothiocyanate], the IC50 was found to be 2080 µM.

As to `CCc1ccc(N=C=S)cc1` [Compound 31, 4-Ethylphenyl isothiocyanate], the IC50 stood at 383 µM.

Regarding `S=C=NCCCN1CCOCC1` [Compound 24, 3-(4-Morpholino) propyl isothiocyanate], the IC50 was 15.7 µM.

As for `S=C=NCCN1CCCCC1` [Compound 35, 2-Piperidino-ethyl isothiocyanate], the IC50 stood at 14.3 µM.

On to `S=C=Nc1ccccc1` [Compound 18, Phenyl isothiocyanate], for which the IC50 was 120 µM.

Turning to Methyl isothiocyanate [Compound 14], the IC50 is 20 µM.

Take `CC(=O)O[C@H]1[C@H](OC(C)=O)[C@@H](N=C=S)OC[C@H]1OC(C)=O` [Compound 39, 2,3,4-Tri-O-acetyl-α-D-arabino-pyranosyl isothiocyanate]: the IC50 was determined as 220 µM.
